Experimental data as given in PubChem BioAssay (NCI).
Values joined by “and” are separate entries in the source; they are usually repeats but may differ in a detail not shown here. Identical values can stand only once.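 96-well plates; 48 h exposure; 5 concentrations. Endpoints by linear interpolation between flanking doses. Not reached: highest tested concentration assigned. Here, GI50 denotes the concentration required for 50% inhibition of growth. At the TGI there is no net growth.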

Key:
Experiment in all cases: growth of human tumour cells (NCI), 48 h
NCI-H522 lung = system: NCI-H522 lung
MOLT-4 leukemia = system: MOLT-4 leukemia
UO-31 renal = system: UO-31 renal
IGROV1 ovarian = system: IGROV1 ovarian
A549 NSCLC = system: A549 NSCLC
U251 CNS = system: U251 CNS
NCI-H23 lung = system: NCI-H23 lung
SK-OV-3 ovarian = system: SK-OV-3 ovarian
SK-MEL-2 melanoma = system: SK-MEL-2 melanoma
LOX IMVI melanoma = system: LOX IMVI melanoma

SMILES	GI50 (NCI-H522 lung) [µM]	TGI (NCI-H522 lung) [µM]	GI50 (MOLT-4 leukemia)	TGI (MOLT-4 leukemia)	GI50 (UO-31 renal)	TGI (UO-31 renal) [µM]	GI50 (IGROV1 ovarian)	TGI (IGROV1 ovarian)	GI50 (A549 NSCLC)	TGI (A549 NSCLC) [µM]	GI50 (U251 CNS)	TGI (U251 CNS) [µM]	GI50 (NCI-H23 lung)	TGI (NCI-H23 lung) [µM]	GI50 (SK-OV-3 ovarian)	TGI (SK-OV-3 ovarian) [µM]	GI50 (SK-MEL-2 melanoma)	TGI (SK-MEL-2 melanoma) [µM]	GI50 (LOX IMVI melanoma)	TGI (LOX IMVI melanoma) [µM]
C[C@H](Nc1ncnc2nc[nH]c12)c1cc2cccc(Cl)c2c(=O)n1-c1ccccc1	6.93	> 100	6.53 µM	51.1 µM	1.67 µM	> 75.3	1.58 µM	7.51 µM	24.2 µM	> 100	11.8 µM	> 100	82.1 µM	> 100	10.8 µM	> 100	19.2 µM	72.6	19.8 µM	> 100
CC(C)C(=O)Nc1nc2nc[nH]c2c(=O)[nH]1		> 100		> 100 µM		> 100		> 100 µM		> 100		> 100		> 100		> 100		> 100		> 100
COc1cc(C2c3cc4c(cc3OC(N3CCCC3)C2C)OCO4)cc(OC)c1OC (stereo not given)		1.55		> 18.6 µM		41.2		30.2 µM		50.4		13.2		7.27		12.2		7.56		25.9
COC(=O)[C@@H](C)C[C@H](Cc1ccccc1)NC(=O)c1nc([C@@H](C[C@H](C(C)C)N(C)C(=O)[C@@H](NC(=O)[C@H]2CCCCN2C)C(C)C)OC(C)=O)sc1C	< 0.00167	< 0.00167	0.00225 µM	> 16.7 µM	0.0118 µM	> 16.7	0.0017 µM	> 16.7 µM	0.00734 µM	> 16.7	< 0.00167 µM	> 16.7	0.00302 µM	> 16.7	< 0.00167 µM	> 16.7	< 0.00167 µM	> 16.7	< 0.00167 µM	> 16.7
O=C([O-])c1ccccc1Nc1ccccn1.O=C([O-])c1ccccc1Nc1ccccn1.[Ni+2]	> 100	> 100	89.8 µM	> 100 µM	48.9 µM	> 100	> 100 µM	> 100 µM	> 100 µM	> 100	> 100 µM	> 100	> 100 µM	> 100	> 100 µM	> 100	> 100 µM	> 100	> 100 µM	> 100
CNS(=O)(=O)NN(C)S(=O)(=O)c1ccc(F)cc1		> 100		> 100 µM		> 100		> 100 µM		> 100		> 100		> 100		> 100		> 100		> 100
CC(C)NC[C@@H](C(=O)N1CCN(c2ncnc3c2[C@H](C)C[C@H]3O)CC1)c1ccc(Cl)cc1	> 100	> 100	0.676 µM and 0.747 µM	> 10 µM and 73.9 µM	6.57 µM and 16.2 µM	> 87.3	0.156 µM and 0.203 µM	0.731 µM and 3.02 µM	> 10 µM and 5.05 µM	> 100	0.958 µM and 0.683 µM	> 100	> 10 µM and 31.2 µM	> 100	0.596 µM and 0.783 µM	> 100	> 10 µM and 33 µM	> 80.2	> 10 µM and 66 µM	> 100
